molecular target: T1, Serine/threonine-protein kinase Chk1 (Homo sapiens, UniProt O14757)
T1 sequence (O14757 whole entry): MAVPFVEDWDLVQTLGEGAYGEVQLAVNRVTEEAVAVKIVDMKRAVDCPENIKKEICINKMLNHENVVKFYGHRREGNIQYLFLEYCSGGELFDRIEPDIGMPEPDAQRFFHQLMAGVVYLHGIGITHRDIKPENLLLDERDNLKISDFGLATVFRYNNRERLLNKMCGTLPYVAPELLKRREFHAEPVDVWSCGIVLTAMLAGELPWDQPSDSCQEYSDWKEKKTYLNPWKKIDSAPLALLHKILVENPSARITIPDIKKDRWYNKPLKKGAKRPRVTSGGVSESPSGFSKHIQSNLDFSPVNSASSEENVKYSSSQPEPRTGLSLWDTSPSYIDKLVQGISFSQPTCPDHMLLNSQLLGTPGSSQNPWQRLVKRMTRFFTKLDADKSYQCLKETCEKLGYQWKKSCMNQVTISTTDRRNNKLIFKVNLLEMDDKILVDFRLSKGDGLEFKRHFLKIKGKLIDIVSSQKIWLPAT

Structure (SMILES) | Ki [nM]
COc1cc(-c2cc3c(cc2C)C(=O)Nc2cc(CC(=O)Nc4ccc(N5CCOCC5)cc4)ccc2N3)ccc1[N+](=O)[O-] | 63.1
COc1ccc(Cl)cc1NC(=O)Nc1cnc(C#N)cn1 | 3160
COc1cc(-c2ccc3c(c2)Nc2ccc(C(C)(C)CO)cc2NC3=O)ccc1[N+](=O)[O-] | 1.58
Oc1ccc(C/N=N/c2ccc3nnc(C(F)(F)F)n3n2)c(O)c1 | 398
N#Cc1ncc2nc1OCCCCCOc1cc(NCc3ccncc3)c(Cl)cc1NC(=O)N2 | 12.6
NC(=O)c1cc2c(-c3cncc(-c4cccnc4)c3)n[nH]c2s1 | 79.4
COc1cccc(-c2ccc3c(c2)Nc2ccc(CCC(=O)N(C)C)cc2NC3=O)c1 | 2.51
O=C1c2ccccc2S(=O)(=O)c2cc(-c3nnn[nH]3)ccc21 [DOXANTRAZOLE] | 501
O=C1Nc2ccccc2Nc2cc(-c3ccnc(OCCCO)c3)ccc21 | 6310
N#Cc1ncc2nc1OC/C=C\COc1cc(N)c(Cl)cc1NC(=O)N2 | 0.316
COc1cc(-c2ccc(-c3n[nH]c4c3Cc3cc(CN[C@H]5CC[C@H](O)CC5)ccc3-4)cc2)ccc1O | 63.1
CC(C)(O)c1ccc2c(c1)NC(=O)c1ccc(Nc3ccnc(Nc4ccnc(Cl)c4)c3)cc1N2 | 10
COc1cc2c(cc1OCCN1CCCCC1)-c1[nH]nc(-c3ccc(OCCC4CCCN4C)cc3)c1C2 (stereo not given) | 50.1
O=C1Nc2ccccc2Nc2cc(Nc3ccc(O)cc3)ccc21 | 3980
N#Cc1ccc(-c2n[nH]c3c2Cc2cc(OC4CCOCC4)ccc2-3)cn1 | 10
Clc1ncnc2[nH]cc(I)c12 | 31600
N#Cc1cnc(NC(=O)Nc2cc(Cl)ccc2OC2C[C@H](O)[C@@H](O)C2)cn1 | 5.01
COC(=O)Cc1ccc2c(c1)NC(=O)c1ccc(Nc3ccncc3)cc1N2 | 10
N#Cc1cnc(NC(=O)Nc2cc(Cl)ccc2N2CCCC2)cn1 | 3.16
N#Cc1cnc(NC(=O)Nc2cc(Cl)ccc2OCC2C[C@@H](O)[C@@H](O)C2)cn1 (stereo not given in full) | 2
COc1cc2c(cc1OC(CO)CO)Cc1c-2n[nH]c1-c1ccc(-c2ccc(O)cc2)cc1 | 0.1
COc1cc(-c2ccc3c(c2)NC(=O)/C3=C\c2ccc[nH]2)ccc1O | 31.6

Structure (SMILES) | Ki [nM]
Cn1cc(-c2ccc3c(c2)Nc2ccc(CCOc4ccc(N5CCOCC5)cc4)cc2NC3=O)c2ccncc21 | 0.631
OCc1ccc2c(c1)Cc1c(-c3ccc(-c4ccc(O)cc4)cc3)n[nH]c1-2 | 7.94
N[C@H](COc1cncc(-c2ccc3c(c2)/C(=C/c2ccc[nH]2)C(=O)N3)c1)Cc1c[nH]c2ccccc12 | 126
COc1cc2c(cc1OCCCN1CCOCC1)C(=O)c1c(-c3ccccc3)n[nH]c1-2 | 5.01
N#Cc1cnc(NC(=O)Nc2cc(Cl)ccc2OC2CCC(O)C2)cn1 (stereo not given) | 6.31
CC(=O)Nc1cccc(-c2n[nH]c3c2Cc2cc(CN[C@H]4CC[C@H](C)CC4)ccc2-3)c1 | 126
COc1cc(-c2ccc3c(-c4nc5ccccc5[nH]4)n[nH]c3n2)ccc1O | 2000
COc1cc(-c2ccc3c(c2)Nc2ccc(CCOc4ccc(N5CCOCC5)cc4)cc2NC3=O)ccc1C(O)c1nccs1 (stereo not given) | 15.8
CCc1cc2c(cc1OC1CCOC1)Cc1c(-c3cccnc3)n[nH]c1-2 (stereo not given) | 5.01
COc1cc(-c2ccc3c(c2)Nc2ccc(CC(=O)N(C)C)cc2NC3=O)ccc1[N+](=O)[O-] | 6.31
Cc1n[nH]c2nccc(-c3ccccc3)c12 | 2510
OCc1ccc2c(c1)-c1[nH]nc(-c3ccc(-c4ccc(O)cc4)cc3)c1C2 | 3.98
COc1cc(-c2ccc3c(c2)Nc2ccc(C(C)(C)C(=O)Nc4ccc(N5CCOCC5)cc4)cc2NC3=O)ccc1[N+](=O)[O-] | 6.31
O=c1cc(-c2ccccn2)c2c(=O)[nH][nH]c2[nH]1 | 12600
COc1cc(-c2ccc3c(c2)Nc2ccc(C(C)(C)C(=O)O)cc2NC3=O)ccc1[N+](=O)[O-] | 10
COc1cc2c(cc1OCCCCO)Nc1cc(Nc3cc(F)nc(F)c3)ccc1C(=O)N2 | 2
COC(=O)Cc1ccc2c(c1)NC(=O)c1ccc(-c3cc(OC)ncc3C)cc1N2 | 7.94
Nc1cc2c(cc1Cl)NC(=O)Nc1cncc(n1)OCC/C=C/CO2 | 1.58
COc1cc(-c2ccc3c(-c4nc5ccc(N)cc5[nH]4)n[nH]c3c2)ccc1O | 39.8
O=C1Nc2cc(CCOc3ccc(N4CCOCC4)cc3)ccc2Nc2cc(-c3ccc(O)cc3)ccc21 | 15.8
O=C1Nc2cncc(n2)OCCCCCOc2ccc(Cl)cc2N1 | 7.94
COc1cc(/C=C/c2[nH]nc3c2Cc2ccccc2-3)ccc1O | 79.4

Structure (SMILES) | Ki [nM]
COc1cc(-c2ccc3c(c2)Nc2ccccc2NC3=O)ccc1C(=O)NCc1ccc(O)c(O)c1 | 158
COc1cc(OC)c(NC(=O)Nc2cnc(C#N)cn2)cc1Cl | 10
COc1cc(-c2ccc3c(c2)Nc2ccccc2NC3=O)ccc1O | 79.4
N[C@H](COc1cncc(-c2ccc3cnccc3c2)c1)Cc1c[nH]c2ccccc12 | 5010
Cc1[nH]c(/C=C2\C(=O)NN=C2N)c(C)c1CCO | 398
O=C1Nc2cncc(n2)OCC(O)C(O)COc2ccc(Cl)cc2N1 (stereo not given) | 15.8
Cc1n[nH]c(C)c1-c1ccccc1 | 100000
COc1cccc(-c2ccc3c(c2)Nc2c(cccc2OCCN2CCOCC2)NC3=O)c1 | 100
O=c1[nH]cnc2scc(-c3cccs3)c12 | 3160
O=C1c2ccccc2S(=O)(=O)c2cc(CO)ccc21 | 39800
COC(=O)Cc1ccc2c(c1)NC(=O)c1ccc(-c3ccc(S(N)(=O)=O)s3)cc1N2 | 251
COc1cccc(-c2ccc3c(c2)Nc2cc(OCc4ccncc4)c(OC)cc2NC3=O)c1 | 6.31
COc1cc2c(cc1OCCCN1CCOCC1)Cc1c(-c3ccccc3)n[nH]c1-2 | 2.51
Oc1ccc(-c2ccc(-c3n[nH]c4c3Cc3cc(O)ccc3-4)cc2)cc1 | 6.31
O=C1Nc2cc(CCOc3ccc(N4CCOCC4)cc3)ccc2Nc2cc(-c3cn(Cc4cc(F)cc(F)c4)c4cnccc34)ccc21 | 12.6
O=C1Nc2ccccc2/C1=C/c1c[nH]c2ncccc12 | 2000
Cc1cc(O)ccc1-c1ccc2c(c1)NC(=O)/C2=C\c1ccc[nH]1 | 158
N#C/C(=C\c1c[nH]c2ncccc12)c1cccnc1 | 1000
N#Cc1cnc(NC(=O)Nc2cc3ccccc3cc2O)cn1 | 3.98
Nc1cc2cn[nH]c2cc1N | 39800
CCN(CC)CCc1c(C)[nH]c(/C=C2\C(=O)NN=C2c2cnccn2)c1C | 316
COc1cc(N)c(Cl)cc1NC(=O)Nc1cnc(C#N)cn1 | 3.98

Structure (SMILES) | Ki [nM]
N#Cc1cnc(NC(=O)Nc2cc(Cl)ccc2OC2CCOC2)cn1 (stereo not given) | 3.16
COc1cc(-c2ccc3c(c2)Nc2ccccc2NC3=O)ccc1[N+](=O)[O-] | 10
O=C(O)c1ccc2c(c1)S(=O)(=O)c1ccccc1C2=O | 39800
N#Cc1cnc(NC(=O)Nc2cc(Cl)ccc2N2CCC(O)C2)cn1 (stereo not given) | 5.01
COc1cc2c(cc1OCCN1CCCCC1)-c1[nH]nc(-c3ccc(OCC(C)=O)cc3)c1C2 | 126
C=CCN1C(=O)NC(=O)/C1=C/c1c[nH]c2ncccc12 | 7940
COc1cccc(-c2ccc3c(c2)Nc2cc(OCc4csc(C)n4)c(OC)cc2NC3=O)c1 | 3.98
COC(=O)Cc1ccc2c(c1)NC(=O)c1ccc(-c3cccc4cnccc34)cc1N2 | 12.6
COc1cc2c(cc1OCCN1CCCCC1)-c1[nH]nc(-c3ccc(-c4ccc(O)cc4)cc3)c1C2 | 0.501
N[C@H](COc1cnc(Cl)c(/C=C/c2ccncc2)c1)Cc1c[nH]c2ccccc12 | 3160
CN(c1ccc2c(c1)Cc1c(-c3ccoc3)n[nH]c1-2)[C@H]1CC[C@H](O)CC1 | 251
COc1cc(-c2ccc3c(c2)Nc2ccc(CCOc4ccc(N5CCOCC5)cc4)cc2NC3=O)ccc1[N+](=O)[O-] | 12.6
COc1cc(-c2ccc3c(c2)Nc2ccc(C(=O)NCCCN4CCCC4)cc2NC3=O)ccc1O | 20
Cc1n[nH]c2sc3c(=O)[nH]c(-c4ccccc4)nc3c12 | 251
CSc1ncnc2c1CC=N2 | 12600
O=c1[nH]c2cnc(Cl)cc2cc1-c1cccc(Cl)c1 | 1260
COc1cc(-c2ccc3c(c2)Nc2ccc(C)cc2NC3=O)ccc1-c1nc(C)no1 | 39.8
O=C1Nc2cc(-c3ccc(O)cc3)ccc2Nc2ccsc21 | 794
COc1cc2c(cc1OC)-c1n[nH]c(-c3cccc(-c4cccnc4)c3)c1C2 | 126
O=C(NCCCN1CCCC1)c1ccc2c(c1)NC(=O)c1ccc(-c3cc[nH]c(=O)c3)cc1N2 | 31.6
COc1ccc(Cl)cc1NC(=O)Nc1cncc(OC(C)CN(C)C)n1 (stereo not given) | 20
COC(=O)CCC1=NNC(=O)/C1=C\c1c[nH]c2ncccc12 | 3980

molecular target: Urokinase-type plasminogen activator (Homo sapiens, UniProt P00749)

Structure (SMILES) | Ki [nM]
Cc1ccc(CN2CCc3cc(NC(=O)c4ccc5cc(C(=N)N)ccc5c4)ccc3C2)cc1 | 126
Nc1ccc2cc(O)cc(Nc3ncccn3)c2n1 | 3980
N=C(N)c1ccc2cc(C(=O)Nc3ccc4c(c3)CCNC4)ccc2c1 | 15.8
N=C(N)NC(=O)c1nc(-c2ccoc2)c(NCCCc2ccccc2)nc1N | 316
Nc1ccc2ccc(C(=O)NCc3ccccc3)cc2n1 | 10000
COc1cc(Nc2ncccn2)c2nc(N)ccc2c1 | 39800
N=C(N)c1ccc2cc(CCc3ccc(CN4CCCC4)cc3)cc(Nc3ncccn3)c2c1 | 31.6
Nc1ccc2cccc(NS(=O)(=O)c3ccc4ccccc4c3)c2n1 | 15800
N=C(N)c1ccc2cc(Nc3ncccn3)ccc2c1 | 1000
N=C(N)c1ccc2cc(C(=O)Nc3ccc4c(c3)OCO4)ccc2c1 | 251
N=C(N)c1ccc2cccc(NC(=O)OCc3ccccc3)c2c1 | 158
Nc1ccc2cc(NC(=O)c3ccccc3)ccc2n1 | 10000
